# Several values for one entry are separate records, joined by “and”; a condition that tells them apart may be missing. Equal entries are not always repeated. Marks after values point to notes of the source that are not given here.
# Legend:
# [1] = Specific molar absorptivity of p-nitrolophine in MeOH at 379 nm; type: physicochemical
# Protocol: As a preliminary step, in the case of p-nitrolophine the specific molar absorptivity of the molecule (ε) (A^11) was determined. To that end, 50.4 mg of p-nitrolophine were weight, they were dissolved in 100.0 mL of MeOH (ppa); 4 dilutions were then performed by taking 1.0, 2.0, 5.0 and 10.0 mL from this mother liquor and topping up each of them to a volume of 100.0 ml with MeOH (ppa). […]
# The slope of the straight line obtained from these points (Y= 16.717x + 0.03; R2 = 0.9993) therefore coincides with the value of specific molar absorptivity of p-nitrolophine at 379 nm ε(379nm) = 16.717 A.U.L/mol [formula]
# ERβ = target: T1, ERβ (Homo sapiens, UniProt Q92731); test: Estrogenicity reporter gene bioassay (luciferase activity) in HELN-ERβ cells; type: cell-based
# T1 construct: expressed in transfected cells; host or cells: HeLa (HELN-ERβ)
# T1 sequence (Q92731 whole entry, species assumed): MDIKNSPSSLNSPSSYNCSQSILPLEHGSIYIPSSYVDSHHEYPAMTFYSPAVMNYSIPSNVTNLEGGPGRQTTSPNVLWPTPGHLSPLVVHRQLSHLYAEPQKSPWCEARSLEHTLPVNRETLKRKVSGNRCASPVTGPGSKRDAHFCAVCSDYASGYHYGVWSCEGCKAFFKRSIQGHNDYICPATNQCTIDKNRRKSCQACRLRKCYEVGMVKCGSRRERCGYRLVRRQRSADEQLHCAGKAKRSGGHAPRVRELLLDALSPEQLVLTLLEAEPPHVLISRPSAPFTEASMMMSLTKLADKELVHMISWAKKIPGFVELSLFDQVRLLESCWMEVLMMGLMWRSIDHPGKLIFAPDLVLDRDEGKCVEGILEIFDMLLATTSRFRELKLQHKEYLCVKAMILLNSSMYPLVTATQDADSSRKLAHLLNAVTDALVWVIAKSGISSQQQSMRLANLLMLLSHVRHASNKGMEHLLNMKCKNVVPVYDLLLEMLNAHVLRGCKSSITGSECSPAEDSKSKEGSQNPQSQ
# Description: Briefly, the transactivation bioassay (Reporter gene assay) used are based on the use of breast and uterine cancer cell lines transfected with different native or modified hormone receptors. The resulting cell lines further contain a reporter gene regulated by estrogens through the estrogen response element, the globin promoter and the luciferase gene.
# HELN-ERα and HELN-ERβ cell lines were obtained by means of transfecting the HeLa uterine cancer cell line. In a first phase, said cells were transfected with an estrogen sensitive response element and then with the estrogen receptor alpha or beta (ERα or ERβ). The selection of clones resistant to geneticin and puromycin was performed using a concentration of 1 mg/mL and 0.5 mg/mL, respectively. The maintenance medium as well as the experimental medium of these 2 cell lines is DMEM F12 without phenol red supplemented with 6% of FBS (lacking of estrogens), 1% of penicillin / streptomycin, 1 mg/mL of geneticin and 0.5 µg/mL of puromycin.
# The cells were seeded at a density of 5x10^4 cells per well in white opaque 96 well plates in 150 µL of experimental medium. After 8 hours, the compounds to be assayed (p-nitrolophine and estradiol) were prepared (concentrated 4x) in the same medium and were added to each well (50 µl). The cells were incubated for 16 hours at 37°C. At the end of the incubation, the medium was removed and replaced with fresh medium containing […] luciferin [at that concentration, luciferin diffuses into cell producing a luminescent signal which is stable after 5 minutes and for at least 2 hours]. The plates were then introduced in the luminometer to measure the luminescence for 2 seconds. A YicroBeta Trilux luminometer (EGG Wallac) apparatus was used to detect luciferase activity.
# The assays were preformed in quadruple for each concentration (0.01-10 µM) in at least three independent experiments. […] The values of luciferase activity obtained were analyzed using the one-way ANOVA statistic test. The differences were considered significant when P was less than […] (P < 0.05).
# [2] = system: inflammation induced by phorbol 12-myristate-13-acetate (PMA); test: Topical anti-inflammatory activity: ear inflammation induced by PMA in mice; type: in vivo; design: RE / RE Average: unit not given here; settings: for LE Average: left ear (non treated); for LE Average / RE Average: group average; for RE Average: right ear (treated); for LE: weight of 6 mm portion of left ear (non treated); for LE / RE: individual mice; for RE: weight of 6 mm portion of right ear (treated)
# Protocol: The topical anti-inflammatory activity of p-nitrolophine has been analyzed in this study since erythema is a inflammatory process. Specifically, the inhibition of inflammation induced by phorbol 12-myristate-13-acetate (PMA) was evaluated and compared with an anti-inflammatory product of reference (indometacin). 37 mice were divided into the following groups: positive control group (PMA 0.5 mg); negative control group (indometacin 0.5 mg); treated groups (0.5 mg and 1 mg of p-nitrolophine). All the solutions were prepared using acetone (ppa) as vehicle. 20 µL of solution of 25 mg/mL of phorbol 12-myristate-13-acetate (PMA) [Fluka cod 79346] (10 µL in each face) was administered in the right ear of each mouse. Immediately after administering the PMA, nothing more was administered into the positive control group; 20 µL of the solution of 25 mg/mL of indometacin was administered to the negative control group, and 20 µL of the solution of 25 or 50 mg/mL of 4-nitrolophine was administered in the same manner to the treated groups. Animals having no lesions or skin and ear irritation were used.
# After 4 hours of post-treatment, the mice were sacrificed through cervical fracture and a portion of 6 mm in diameter was obtained from each ear with a hollow punch which was weight in precision analytical balance. The difference in weight (Δ) between the right ear (treated) and the left ear (non treated) for each animal and for each group were calculated. The percentage of inhibition (% inh) was estimated and calculated according to the following equation: % inh = 100(1-Δt/Δc) [formula] wherein Δt represents the difference in the treated groups and Δc the difference for the […].
# In order to analyze the results, an one way ANOVA and Dunnet test for multiple comparison was used, values of P<0.05 were considered significant. A software, Graphpad Instat Version 3.06, was used for such purposes.
structure (smiles),measurement,setting,value
"O=[N+]([O-])c1ccc(-c2nc(-c3ccccc3)c(-c3ccccc3)[nH]2)cc1 [p-nitrolophine, 2-(4-nitrophenyl)-4,5-diphenyl-1H-imidazole]",specific molar absorptivity ε(379nm),"[1]; 379 nm, slope of the straight line",16.717 A.U.L/mol
same,Abs. at 379 nm (A.U.),[1]; Concentration (mol) 0.0000147,0.2572 A.U.
same,Abs. at 379 nm (A.U.),[1]; Concentration (mol) 0.00002953,0.5214 A.U.
same,Abs. at 379 nm (A.U.),[1]; Concentration (mol) 0.00007382,1.301 A.U.
same,Abs. at 379 nm (A.U.),[1]; Concentration (mol) 0.00014764,2.4819 A.U.
same,activity at 0.01 µM,ERβ,9.6 ± 1.4%
same,activity at 0.03 µM,ERβ,10 ± 0.8%
same,activity at 0.1 µM,ERβ,10.2 ± 1.3%
same,activity at 0.3 µM,ERβ,10.3 ± 1.1%
same,activity at 1 µM,ERβ,10.1 ± 1.3%
same,activity at 3 µM,ERβ,10.2 ± 1.9%
same,activity at 10 µM,ERβ,10.6 ± 1.2%
same,estrogenicity,"ERβ; HELN-ERβ line, conclusion in words",not an estrogenic compound
same,% inhibition,[2]; 4 hours,100** (q = 9.5) %
same,Average (Δ = RE - LE),"[2]; Dose (mg/ear) 0.5, 4 hours",-0.13
same,% inhibition,"[2]; Dose (mg/ear) 1, n=4, tendency, not statistically compared",~90%
same,Average (Δ = RE - LE),"[2]; Dose (mg/ear) 1, n=4, 4 hours",0.52
same,LE Average,"[2]; 0.5 mg group, 4 hours",6.7
same,LE Average,"[2]; 1 mg group, 4 hours",5.9
same,RE Average,"[2]; 0.5 mg, 4 hours",6.6
same,RE Average,"[2]; 1 mg, 4 hours",6.4
same,LE,"[2]; 0.5 mg group, 4 hours, listed as 4-nitrolophine",9.9 and 7.5 (2×) and 6.2 (2×) and 6.4 and 6.7 (2×) and 5.6 and 5.2 and 5.9 and 7.8 and 6
same,LE,"[2]; 1 mg group, 4 hours, listed as 4-Nitrolophine","5.6 and 5.8 and 5,5 and 6.6"
same,RE,"[2]; 0.5 mg, 4 hours, listed as 4-nitrolophine",7.3 and 7 and 5.9 (2×) and 5.6 and 6.6 (2×) and 7.2 and 7.8 and 6.5 and 6 and 7.7 and 5.8
same,RE,"[2]; 1 mg, 4 hours, listed as 4-Nitrolophine",5.9 and 7.3 and 6.2 (2×)
